One may read the pKa as the negative logarithm of the acid dissociation constant. A higher pKa goes with a group that holds its proton tightly.

The record followed here is patent US9301923B2, “Lipids, lipid compositions, and methods of using them” (NOVARTIS AG, priority 2009, dated 2016).

SMILES strings stand for the structures.

A short description of data set [1]: pKa of the lipid by TNS fluorescence. Format: physicochemical. The following applies: pKa. In short, it runs like this:
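Lipid dissolved in ethanol (2 mM stock) and measured with TNS across eight buffers of differing pH, in water at standard temperature and pressure. Normalized fluorescence intensity plotted against pH and points joined by a smooth line to derive pKa, precise to about 0.2 units.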

In data set [2] the test system is PLK-1 mRNA in Hep3B tumors. Nature of the data set: Hep3B tumor study, PLK-1 mRNA KD in tumor tissue. The following applies: Hep3B tumor, mouse, i.v., LNP composition as in the source. Format: in vivo, human. An excerpt: Formulated siRNAs are made up of double stranded siRNA sequences specific to a target mRNA sequence, and are in the form of lipid nucleotid particles (LNPs) containing cationic lipids, stealth lipids and neutral lipids, as provided in the Examples below. The siRNA construct for use in targeting the liver is specific to Factor VII. The siRNA construct for use in targeting tumors is specific to PLK1-424, which is published by Judge et al., See, J Clin Invest. 2009 March; 119(3):661-73; doi: 10.1172/JCI37515). • 1. FVII siRNA duplex sequence
Hep3B tumors are established in female nude mice by sc injection of 7×10^6 cells in 100 ul PBS into the left flank. Mice are randomized into treatment groups 10-14 days after seeding as tumors reached an average size of 100 mm^3. siRNA formulated LNP formulations are administered at various dose levels intravenously via the lateral tail vein calculated on a mg siRNAs/kg basis according to individual animal weights (10 ml/kg injection volume). Mice are euthanized by CO2 inhalation at various time points and the tumors are harvested for mRNA quantitation. Lipids with a wide range of pKa (5.3-6.6) are used in the LNP formulations. Tumors are measured in 2 dimensions (width×length) to assess tumor growth using digital calipers. Tumor volume is calculated using the equation [a×b×b/2], where a equals the largest diameter and b equals the smallest diameter.
About 30-50 mg tumor tissue is homogenized in tissue lysis buffer in a Qiagen homogenizer followed by centrifugation to clarify lysates. Total RNA is isolated using RNeasy isolation kit (catalog number 74106) according to the manufacture's protocol. PLK-1 mRNA is analyzed by quantitative PCR and normalized to human GAPDH. Applied Biosystems human PLK-1 gene expression assay Hs00983229_m1 and human GAPDH endogenous control cat number 4326317E are used for mRNA detection.
The pKa in all tables refers to the pKa of the cationic lipid. Where multiple doses are indicated (e.g., 3×5), the first number indicates the number of doses given and the second number indicates the amount per dose in mg siRNA (biologically active agent) per kg mouse. In general the multiple doses are administered at 24 hour intervals, and tissues for mRNA quantitation are harvested 24 hours after the last dose.

Data set [3] is described as follows: Particle size and PDI by dynamic light scattering (Malvern Zetasizer). The data set is classed as physicochemical. In short, it runs like this: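 Nanoparticles diluted in PBS to a count rate of about 200-400 kcts and measured by dynamic light scattering; size given as intensity-weighted average diameter, with polydispersity index from the same measurement.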

For another data set, the system named is Factor VII. The data set is described as follows: Factor VII activity assay, in vivo liver delivery of FVII siRNA LNP. The note with it: ~48 h. Set-up: species or system mouse. The essentials: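 Female CD-1 mice (~25 g) given a single i.v. tail-vein dose of FVII siRNA in LNPs (cationic, stealth, neutral lipids), dosed as mg siRNA/kg. Plasma collected ~48 h post-injection; FVII activity read against a standard curve from pooled vehicle-control plasma.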

The mark [4] stands for this setting: LNP formulation with PLK1 siRNA, helper, neutral and stealth lipid, molar ratio and N/P as in the table.
[5] abbreviates: dose 3 mg/kg siRNA i.v., lipid/no neutral lipid/CHOL/AVANTI 880150P 50/0/46/4, N/P 3.43.
Setting [6] is: lipid/no neutral lipid/CHOL/AVANTI 880150P 50/0/46/4, N/P 3.43.
The mark [7] stands for this setting: dose 1 mg/kg siRNA i.v., lipid/no neutral lipid/CHOL/GM-020 NOF 60/0/36/4, N/P 3.
Where [8] appears, read: lipid/no neutral lipid/CHOL/GM-020 NOF 60/0/36/4, N/P 3.
Where [9] appears, read: lipid/DSPC/CHOL/AVANTI 880150P 50/28/18/4, N/P 3.43.

With `CCCCCCCC/C=C\CCCCCCCCOCC(CN1CCOCC1)OCCOC(=O)CO[C@H]1CC[C@@]2(C)C(=CCC3[C@@H]4CC[C@H]([C@H](C)CCCC(C)C)[C@@]4(C)CC[C@@H]32)C1` (some centres unmarked) [E0128], the pKa in data set [1] came out at 5.01. In data set [2] (1 × 1 mg siRNA/kg), this compound returned a PLK1 inhibition % of 23%. Moreover, in data set [3] (setting [4]), the “Final size (nm)” value is listed as 83.47 nm.
In data set [1], `CCCCCCCC/C=C\CCCCCCCCOCOCC(CN1CCCCC1)OCCCOC(=O)CCC(=O)O[C@H]1CC[C@@]2(C)C(=CC[C@H]3[C@@H]4CC[C@H]([C@H](C)CCCC(C)C)[C@@]4(C)CC[C@@H]32)C1` (some centres unmarked) [E0160] showed a pKa of 6.05. This compound had a PLK1 inhibition % in data set [2] (1 × 1 mg siRNA/kg) of 38%. The “Final size (nm)” value in data set [3] (setting [4]) came to 100.8 nm.
In data set [1], `CCCCCCCC/C=C\CCCCCCCCOCC(CN1CC[C@@H]2CCCC[C@H]2C1)OCCOCCO[C@H]1CC[C@@]2(C)C(=CC[C@H]3[C@@H]4CC[C@H]([C@H](C)CCCC(C)C)[C@@]4(C)CC[C@@H]32)C1` (some centres unmarked) [E0120] registered a pKa of 5.48. The PLK1 inhibition % in data set [2] (1 × 1 mg siRNA/kg) turned out to be 28%. Further, in data set [3] (setting [4]), the “Final size (nm)” value stood at 87 nm.
In data set [1], `CCCCCCCC/C=C\CCCCCCCCOCC(CN1CCOCC1)OCCOCCOC(=O)CCC(=O)O[C@H]1CC[C@@]2(C)C(=CC[C@H]3[C@@H]4CC[C@H]([C@H](C)CCCC(C)C)[C@@]4(C)CC[C@@H]32)C1` (some centres unmarked) [E0152] yielded a pKa of 5.38. The PLK1 inhibition % in data set [2] (1 × 1 mg siRNA/kg) is given as 18%. Besides, the “Final size (nm)” value in data set [3] (setting [4]) is listed as 121.3 nm.
`CCCCC/C=C\C/C=C\CCCCCCCCOCC(CN1CCCCC1)OCCCOC(=O)CCC(=O)O[C@H]1CC[C@@]2(C)C(=CC[C@H]3[C@@H]4CC[C@H]([C@H](C)CCCC(C)C)[C@@]4(C)CC[C@@H]32)C1` (some centres unmarked) [E0179] registered a pKa in data set [1] of 5.95. The same compound returned a PLK1 inhibition % in data set [2] (1 × 1 mg siRNA/kg) of 53%. The “Final size (nm)” value in data set [3] (setting [4]) is reported as 114.6 nm.
In data set [1], `CCCCCCCC/C=C\CCCCCCCCOCC(CN1CCCCC1)OCCOC(=O)CCCC(=O)O[C@H]1CC[C@@]2(C)C(=CC[C@H]3[C@@H]4CC[C@H]([C@H](C)CCCC(C)C)[C@@]4(C)CC[C@@H]32)C1` (some centres unmarked) [E0151] had a pKa of 6.06. The PLK1 inhibition % in data set [2] (1 × 0.1 mg siRNA/kg) is on record as 7%; in data set [2] (1 × 1 mg siRNA/kg) it was 25%. The “Final size (nm)” value in data set [3] (setting [4]) came out at 103.8 nm.
`CCCCC/C=C\C/C=C\CCCCCCCCOCC(CN1CCOCC1)OCCCOCCCO[C@H]1CC[C@@]2(C)C(=CC[C@H]3[C@@H]4CC[C@H]([C@H](C)CCCC(C)C)[C@@]4(C)CC[C@@H]32)C1` (some centres unmarked) [E0093]: the pKa in data set [1] worked out at 4.85. The PLK1 inhibition % in data set [2] (1 × 10 mg siRNA/kg) is reported as 2%. For the same compound, in data set [3] (setting [4]), the “Final size (nm)” value came out at 82.42 nm.
Take `CCCCCCCC/C=C\CCCCCCCCOCC(CN1CCOCC1)OCCOCC(=O)OC1CC[C@@]2(C)C(=CCC3C2CC[C@@]2(C)C3CC[C@@H]2[C@H](C)CCCC(C)C)C1` (some centres unmarked) [E0167]: in data set [1], the pKa was found to be 5.21. This compound yielded a PLK1 inhibition % in data set [2] (1 × 1 mg siRNA/kg) of 23%. Also, the “Final size (nm)” value in data set [3] (setting [4]) is given as 86.57 nm.
For the compound `CCCCC/C=C\C/C=C\CCCCCCCCOCC(CN1CCC(C)(C)C1)OCCOCCO[C@H]1CC[C@@]2(C)C(=CC[C@H]3[C@@H]4CC[C@H]([C@H](C)CCCC(C)C)[C@@]4(C)CC[C@@H]32)C1` (some centres unmarked) [E0026], the FVII inhib % in the data set with Factor VII (setting [5]) stood at 95.1%. In data set [2] (1 × 5 mg siRNA/kg), the PLK1 inhibition % is 75%. Besides, the “Final size (nm)” value in data set [3] (setting [4]) came to 105.8 nm. For the same compound, in data set [3] (setting [6]), the “Final size (nm)” value stood at 87 nm and the PDI is 0.23.
In the case of `CCCCCCCC/C=C\CCCCCCCCOCC(CN1CCCC1C)OCCO[C@H]1CC[C@@]2(C)C(=CC[C@H]3[C@@H]4CC[C@H]([C@H](C)CCCC(C)C)[C@@]4(C)CC[C@@H]32)C1` (some centres unmarked) [E0066], the pKa in data set [1] was 6.5. This compound came in with an FVII inhib % in the data set on Factor VII (setting [7]) of 44.2%. In addition, in data set [3] (setting [8]), the “Final size (nm)” value was found to be 140.7 nm and the PDI worked out at 0.071.
In the case of `CCCCCCCC/C=C\CCCCCCCCOCC(CN1CCCCC1)OCCOCCO[C@H]1CC[C@@]2(C)C(=CC[C@H]3[C@@H]4CC[C@H]([C@H](C)CCCC(C)C)[C@@]4(C)CC[C@@H]32)C1` (some centres unmarked) [E0063], the pKa in data set [1] came to 6.48. Also, the FVII inhib % in the data set with Factor VII (setting [7]) is 33.3%. In data set [3] (setting [8]), the “Final size (nm)” value is given as 155.5 nm and the PDI stood at 0.09.
The like results for `CCCCCCCC/C=C\CCCCCCCCOCC(CN1CCC(OC)C1)OCCOCCO[C@H]1CC[C@@]2(C)C(=CC[C@H]3[C@@H]4CC[C@H]([C@H](C)CCCC(C)C)[C@@]4(C)CC[C@@H]32)C1` (some centres unmarked) [E0064] were, in that order, 6.83, 37.2%, 169.2 nm and 0.144.
Regarding `CCCCC/C=C\C/C=C\CCCCCCCCOCC(CN1CCC(OC)C1)OCCCCO[C@H]1CC[C@@]2(C)C(=CCC3C2CC[C@@]2(C)C3CC[C@@H]2[C@H](C)CCCC(C)C)C1` (some centres unmarked) [E0035], in data set [1], the pKa worked out at 5.93. Besides, the FVII inhib % in the data set on Factor VII (dose 3 mg/kg siRNA i.v., lipid/DSPC/CHOL/AVANTI 880150P 50/28/18/4, N/P 3.43) came out at 22%; in the data set on Factor VII (setting [5]), 66.8%. Besides, the “Final size (nm)” value worked out at 103 nm in data set [3] (setting [9]) and 79 nm in data set [3] (setting [6]). In addition, the PDI in data set [3] (setting [9]) is 0.2; in data set [3] (setting [6]), 0.21.
Consider `CCCCCCCC/C=C\CCCCCCCCOCC(CN1CCCC1C)OCCCOCCCO[C@H]1CC[C@@]2(C)C(=CC[C@H]3[C@@H]4CC[C@H]([C@H](C)CCCC(C)C)[C@@]4(C)CC[C@@H]32)C1` (some centres unmarked) [E0094], for which, in data set [1], the pKa turned out to be 5.91. The same compound gave an FVII inhib % in the data set with Factor VII (setting [7]) of 36.3%. Also, in data set [3] (setting [8]), the “Final size (nm)” value came out at 115.5 nm and the PDI was 0.076.
